In the experiment the test system is HIV-IIIb. The experiment in a line: Test A: Antiviral Assay in MT4 Cells. The experiment is classed as cell-based. The conditions noted are these: Human immunodeficiency virus 1, IIIB, MT4, 120 h, Table 2; MT-4 cells infected with HIV-IIIb, 5 days of incubation, CellTiter-Glo; read-out: EC50. A digest of the protocol:
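MT-4 cells pre-infected with HIV-IIIb (0.004 m.o.i.) at 37 °C, then exposed to 3-fold serial compound dilutions (10 concentrations, quadruplicate) in RPMI 1640/10% FBS. After 5 days at 37 °C, viability read by CellTiter-Glo luminescence.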

`Cc1cc2nc(-c3ccnc(N4CCN(C)CC4)n3)sc2c(-c2ccc(Cl)cc2)c1[C@H](OC(C)(C)C)C(=O)O` [Compound 344]: the EC50 (commonly the concentration giving half of the maximal effect) amounted to 6 nM.

Regarding `COc1cc(-c2cc(-c3nc4cc(C)c([C@H](OC(C)(C)C)C(=O)O)c(-c5ccc(Cl)cc5)c4s3)ccn2)cnc1OC` [Compound 345], the EC50 was 28 nM. The result for `Cc1cc2nc(-c3ccnc(-c4cnn(C(C)(C)C)c4)n3)sc2c(-c2ccc(Cl)cc2)c1[C@H](OC(C)(C)C)C(=O)O` [Compound 346] reads 11 nM; that for `Cc1cc2nc(-c3ccnc(-c4cnn(C)c4C)n3)sc2c(-c2ccc(Cl)cc2)c1[C@H](OC(C)(C)C)C(=O)O` [Compound 347], 42 nM; that for `Cc1cc2nc(-c3ccc4c(cnn4C4CCOCC4)c3)sc2c(-c2ccc(Cl)cc2)c1[C@H](OC(C)(C)C)C(=O)O` [Compound 348], 30 nM. The result for `Cc1cc2nc(-c3ccc4[nH]ncc4c3)sc2c(-c2ccc(Cl)cc2)c1[C@H](OC(C)(C)C)C(=O)O` [Compound 349] reads 42 nM. On to `COc1ccc(-c2cc(-c3nc4cc(C)c([C@H](OC(C)(C)C)C(=O)O)c(-c5ccc(Cl)cc5)c4s3)ccn2)cc1OC` [Compound 350], for which the 50% effective concentration (EC50) turned out to be 14 nM.

For `CCn1ncc2cc(-c3nc4cc(C)c([C@H](OC(C)(C)C)C(=O)O)c(-c5ccc(Cl)cc5)c4s3)ccc21` [Compound 351], the concentration for a half-maximal effect (EC50) came out at 21 nM.

As for `CCCn1ncc2cc(-c3nc4cc(C)c([C@H](OC(C)(C)C)C(=O)O)c(-c5ccc(Cl)cc5)c4s3)ccc21` [Compound 352], the EC50 came to 29 nM. Regarding `Cc1cc2nc(-c3ccc4c(cnn4C(C)C)c3)sc2c(-c2ccc(Cl)cc2)c1[C@H](OC(C)(C)C)C(=O)O` [Compound 353], the EC50 was 31 nM. On to `Cc1cc2nc(-c3ccc(-c4ccc(Br)cc4)cc3)sc2c(-c2ccc(Cl)cc2)c1[C@H](OC(C)(C)C)C(=O)O` [Compound 354], for which the half-maximal effective concentration (EC50) is 1370 nM.

In the case of `COc1ncc(-c2ccc(-c3nc4cc(C)c([C@H](OC(C)(C)C)C(=O)O)c(-c5ccc(Cl)cc5)c4s3)cc2)cn1` [Compound 355], the EC50 was determined as 182 nM. The result for `Cc1cc2nc(-c3ccc(-c4cnc(=O)[nH]c4)cc3)sc2c(-c2ccc(Cl)cc2)c1[C@H](OC(C)(C)C)C(=O)O` [Compound 356] reads 3330 nM.

`Cc1cc2nc(-c3nccc(-c4ccc5c(cnn5C)c4)n3)sc2c(-c2ccc(Cl)cc2)c1[C@H](OC(C)(C)C)C(=O)O` [Compound 357]: the concentration for a half-maximal effect (EC50) amounted to 12 nM. The result for `Cc1cc2nc(-c3ccc4c(n3)c(C)nn4C)sc2c(-c2ccc(Cl)cc2)c1[C@H](OC(C)(C)C)C(=O)O` [Compound 358] reads 241 nM. Then `Cc1cc2nc(-c3ccc4nn(C)c(C)c4n3)sc2c(-c2ccc(Cl)cc2)c1[C@H](OC(C)(C)C)C(=O)O` [Compound 359], with 21 nM. Then `Cc1cc2nc(-c3ccc4nn(C5CCN(C)CC5)cc4n3)sc2c(-c2ccc(Cl)cc2)c1[C@H](OC(C)(C)C)C(=O)O` [Compound 360], with 13 nM. Turning to `Cc1cc2nc(-c3ccc4c(cnn4C4CCN(C)CC4)n3)sc2c(-c2ccc(Cl)cc2)c1[C@H](OC(C)(C)C)C(=O)O` [Compound 361], the EC50 stood at 20 nM. On to `Cc1cc2nc(-c3c4cnccc4nn3C)sc2c(-c2ccc(Cl)cc2)c1[C@H](OC(C)(C)C)C(=O)O` [Compound 362], for which the 50% effective concentration (EC50) worked out at 21 nM.

Consider `Cc1cc2nc(-c3nn(C)c4ccncc34)sc2c(-c2ccc(Cl)cc2)c1[C@H](OC(C)(C)C)C(=O)O` [Compound 363], for which the EC50 was found to be 15 nM. `Cc1cc2nc(-c3cc4cn(C)nc4cn3)sc2c(-c2ccc(Cl)cc2)c1[C@H](OC(C)(C)C)C(=O)O` [Compound 364]: the EC50 is 9 nM. Turning to `Cc1cc2nc(-c3cc4cnn(C)c4cn3)sc2c(-c2ccc(Cl)cc2)c1[C@H](OC(C)(C)C)C(=O)O` [Compound 365], the half-maximal effective concentration (EC50) was 29 nM.

For the compound `Cc1cc2nc(-c3ccc4nn(C)cc4n3)sc2c(-c2ccc(Cl)cc2)c1[C@H](OC(C)(C)C)C(=O)O` [Compound 366], the EC50 stood at 6 nM.

Values taken from patent US8987250B2 (Gilead Sciences, Inc., priority 2012, dated 2015).
